This test deals with T1, MARK1 (MARK) (Homo sapiens, UniProt Q9P0L2).
T1 construct: purchased Thermo Fisher Scientific (Life Technologies) SelectScreen
The test is described as follows: SelectScreen Z'LYTE. The test is classed as biochemical. The method in brief:
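SelectScreen broad panel; activity (Z'LYTE, Adapta) plus binding formats. ATP: Km app for CSF1R Z'LYTE; 10 for CAMK1 Adapta. Readout = % per kinase.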

T1 sequence (Q9P0L2 whole entry): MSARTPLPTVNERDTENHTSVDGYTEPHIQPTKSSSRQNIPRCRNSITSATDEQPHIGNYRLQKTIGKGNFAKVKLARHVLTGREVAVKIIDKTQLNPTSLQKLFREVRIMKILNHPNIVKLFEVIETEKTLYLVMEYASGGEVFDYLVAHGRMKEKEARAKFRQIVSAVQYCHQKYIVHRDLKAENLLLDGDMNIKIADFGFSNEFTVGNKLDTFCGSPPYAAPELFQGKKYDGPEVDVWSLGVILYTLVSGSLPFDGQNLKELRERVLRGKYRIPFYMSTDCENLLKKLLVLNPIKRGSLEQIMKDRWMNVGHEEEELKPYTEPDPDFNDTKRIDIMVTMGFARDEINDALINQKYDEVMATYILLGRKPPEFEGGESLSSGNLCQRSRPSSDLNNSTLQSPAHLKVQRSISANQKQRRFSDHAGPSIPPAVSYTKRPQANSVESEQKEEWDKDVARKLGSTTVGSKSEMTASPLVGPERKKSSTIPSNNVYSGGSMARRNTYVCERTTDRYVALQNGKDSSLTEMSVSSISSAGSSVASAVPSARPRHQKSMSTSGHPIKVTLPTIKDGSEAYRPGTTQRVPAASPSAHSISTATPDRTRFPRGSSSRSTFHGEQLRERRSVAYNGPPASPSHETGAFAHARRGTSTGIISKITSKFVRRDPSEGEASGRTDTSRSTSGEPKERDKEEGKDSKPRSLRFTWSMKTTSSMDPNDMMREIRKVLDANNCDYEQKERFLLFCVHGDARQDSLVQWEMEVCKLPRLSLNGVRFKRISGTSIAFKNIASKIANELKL

`CN(C(=O)CN1CCOCC1)c1ccc2sc3c(-c4cccc5c(=O)cc(N6CC7CCC(C6)O7)oc45)cccc3c2c1` [NU5455] showed an inhibition at 1 µM of 5.1%.

By inhibition is commonly meant the percentage by which the read-out fell short of the control. Read a low inhibition as a weak effect.
